Results as given in patent US7907999B2, “Apparatus and method for measuring physiological characteristics of an intact trachea in vitro” (priority 2006, dated 2011).

What was measured:
[1] = test system: epithelium of intact trachea; assay: Transepithelial potential difference (Vt) and impedance (Rt) of intact perfused trachea in vitro; set-up: species or system Hartley guinea pigs; conditions: for effect on transepithelial impedance (Rt) / effect on transepithelial potential difference (Vt): intact guinea pig tracheal segment, each agent tested four times; for effect on transepithelial impedance (Rt): current pulses 20 μA; for effect on transepithelial impedance (Rt) / effect on Vt, summary of bar graphs (on average): agent concentration and bath as in Tables 1 and 2; for effect on transepithelial potential difference (Vt): open-circuit, 37° C., agent concentration and bath (intraluminal/extraluminal) as in Tables 1 and 2; for effect on Vt, summary of bar graphs (on average): means of four preparations
From the text: Under open circuit conditions, the first current electrode 60 (FIG. 1) introduces an electrical current into the perfusion liquid flowing into the perfusion device 12. The electrical current flows into the perfusion device, where it emanates from the inlet portion 64 (FIG. 7) and flows across the trachea wall to the second current electrode 62. The first voltage-sensing electrode 56 (FIG. 1) is in electrically continuity with the perfusion liquid in the trachea 14 (via cannula 78, tube 100, and conduits 38 and 46) and therefore senses the electrical potential inside the trachea. The second voltage-sensing electrode 58 senses the electrical potential in the extraluminal bath 54 outside of the trachea. The amplifier 18 calculates the electrical potential difference between the voltage-sensing electrodes 56, 58, which represents the transepithelial potential difference of the trachea. The amplifier 18 can also calculate the transepithelial impedance across the trachea wall based on the applied current and the measured potential difference. […] Hartley guinea pigs were anesthetized by i.p. injection of sodium pentobarbital (65 mg/kg). A 4.2-cm tracheal segment was removed and mounted on a perfusion device 12 at its in situ length. The perfusion device was placed in an extraluminal bath containing a modified Krebs-Henseleit […] solution, and was perfused at 24 ml/min with MKH solution from an intraluminal bath. Water was used as a heat transfer fluid and was supplied to the heat exchanger 20 and the outer jackets of vessels 26, 28 to maintain the temperature of the extraluminal and intraluminal baths at about 37° C. Current pulses (20 μA, 5 s duration, 50 s intervals) were delivered through the current electrodes, while the changes in the transepithelial potential difference (Vt) caused by the current pulses were monitored under open-circuit conditions. Alternatively, and as mentioned above, voltage pulses can be applied across the voltage electrodes under voltage-clamp conditions, while the changes in short circuit current are monitored. The preparation was equilibrated for 2.5 hours to allow Vt and the pressure drop (ΔP) to stabilize before the current pulses were delivered. Basal Vt (the transepithelial voltage in the basal, or steady, state of an unstimulated epithelium) was 14.8±0.8 mV. […] To determine the effects of relaxant agents, when the mechanical and bioelectric responses reached their plateau responses to MCh, the trachea was treated with agents added to the extraluminal or intraluminal bath. The agents used in this example are described in tables 1 and 2 below. The effects of the agents were analyzed statistically using student's paired t-test. P<0.05 was accepted as significant, and is indicated by an asterisk in FIGS. 8-15. The results are presented as means±SE. Each agent was tested four times. Amiloride, NPPB and bumetanide were dissolved in dimethyl sulfoxide (DMSO) (with a final concentration equal to or less than 0.04%). The other agents were prepared in MKH. Terbutaline, histamine, ouabain and bumetanide were added to the extraluminal bath; the other agents were added to the intraluminal bath. Hypersmolar solutions were prepared by adding osmolytes to MKH solution.

[2] = test system: smooth muscle of intact trachea; assay: Pressure drop (ΔP) of perfusion liquid through intact trachea: smooth muscle contraction/relaxation; set-up: species or system Hartley guinea pigs; conditions: for effect on differential pressure (ΔP), smooth muscle contraction or relaxation: intact guinea pig tracheal segment perfused at 24 ml/min, agent concentration and bath as in Tables 1 and 2, relaxation observed after pre-contraction with MCh
From the text: As described above, the first port 50 of the differential pressure transducer 16 is in fluid communication with the openings 82 in the first cannula 78 and the second port 52 of the differential pressure transducer 16 is in fluid communication with the openings 88 in the second cannula 84. As a result, the differential pressure transducer 16 “sees” the pressure of the perfusion liquid flowing through the trachea 14 at the openings 82 and 88 and can calculate the pressure drop (ΔP) of the perfusion liquid between these two locations (as depicted in FIG. 7). […] Hartley guinea pigs were anesthetized by i.p. injection of sodium pentobarbital (65 mg/kg). A 4.2-cm tracheal segment was removed and mounted on a perfusion device 12 at its in situ length. The perfusion device was placed in an extraluminal bath containing a modified Krebs-Henseleit […] solution, and was perfused at 24 ml/min with MKH solution from an intraluminal bath. Water was used as a heat transfer fluid and was supplied to the heat exchanger 20 and the outer jackets of vessels 26, 28 to maintain the temperature of the extraluminal and intraluminal baths at about 37° C. Current pulses (20 μA, 5 s duration, 50 s intervals) were delivered through the current electrodes, while the changes in the transepithelial potential difference (Vt) caused by the current pulses were monitored under open-circuit conditions. Alternatively, and as mentioned above, voltage pulses can be applied across the voltage electrodes under voltage-clamp conditions, while the changes in short circuit current are monitored. The preparation was equilibrated for 2.5 hours to allow Vt and the pressure drop (ΔP) to stabilize before the current pulses were delivered. Basal Vt (the transepithelial voltage in the basal, or steady, state of an unstimulated epithelium) was 14.8±0.8 mV. […] To determine the effects of relaxant agents, when the mechanical and bioelectric responses reached their plateau responses to MCh, the trachea was treated with agents added to the extraluminal or intraluminal bath. The agents used in this example are described in tables 1 and 2 below. The effects of the agents were analyzed statistically using student's paired t-test. P<0.05 was accepted as significant, and is indicated by an asterisk in FIGS. 8-15. The results are presented as means±SE. Each agent was tested four times. Amiloride, NPPB and bumetanide were dissolved in dimethyl sulfoxide (DMSO) (with a final concentration equal to or less than 0.04%). The other agents were prepared in MKH. Terbutaline, histamine, ouabain and bumetanide were added to the extraluminal bath; the other agents were added to the intraluminal bath. Hypersmolar solutions were prepared by adding osmolytes to MKH solution.

Row | EC50 ([2]; Cavia porcellus, methacholine in the extraluminal bath, read-out: EC50 for pre-contracting the trachea) | Compound | effect on transepithelial impedance (Rt) [1] | effect on transepithelial potential difference (Vt) [1] | effect on differential pressure (ΔP), smooth muscle contraction or relaxation [2] | effect on Vt, summary of bar graphs (on average) [1] | effect on transepithelial potential (Vt) during pre-contraction ([1]; MCh 3×10^−7M in the extraluminal bath)
1 |  | CCCCNc1cc(C(=O)O)cc(S(N)(=O)=O)c1Oc1ccccc1 [Bumetanide] | did not effect Rt | depolarization | small degree of relaxation of the trachea |  | 
2 |  | NCCc1c[nH]cn1 [Histamine] | did not effect Rt | variable Vt responses | contraction | did not effect Vt appreciably | 
3 |  | C[C@@H]1O[C@@H](O[C@H]2C[C@@H](O)[C@]3(CO)[C@H]4[C@H](O)C[C@]5(C)[C@@H](C6=CC(=O)OC6)CC[C@]5(O)[C@@H]4CC[C@]3(O)C2)[C@H](O)[C@H](O)[C@H]1O [Ouabain] | decrease in Rt | immediate depolarization | delayed contraction of the trachea | complete | 
4 |  | O=C(O)c1cc([N+](=O)[O-])ccc1NCCCc1ccccc1 [NPPB] | negligible effect on Rt | depolarization caused by NPPB was slower to develop and greater in magnitude | Neither agent affected ΔP |  | 
5 | 300 nM | CC(=O)OC(C)C[N+](C)(C)C (centres unmarked) [methacholine] |  |  |  |  | induced transepithelial hyperpolarization
6 |  | N=C(N)NC(=O)c1nc(Cl)c(N)nc1N [amiloride, Amiloride] | increase in Rt | depolarization of the epithelium | Neither agent affected ΔP |  | 
7 |  | CC(C)(C)NCC(O)c1cc(O)cc(O)c1 (centres unmarked) [Terbutaline] | did not effect Rt | transient depolarization in three of the four preparations followed by slow hyperpolarization | relaxation | did not effect Vt appreciably | 
8 |  | [Cl-].[Na+] [NaCl] | decreased Rt | depolarization | relaxation |  | 
9 |  | OC[C@@H](O)[C@@H](O)[C@H](O)[C@H](O)CO [D-M, D-mannitol] | increased Rt | depolarization | relaxation |  | 
